{"source": "patent US4097595A", "about": "“7-Amino-thiazolyl acetamido cephalosporanic acids” (Roussel Uclaf, priority 1976, dated 1978)", "key": {"[1]": {"system": "Streptococcus faecalis 5 432", "experiment": "MIC, dilution method in liquid media, Streptococcus faecalis 5 432", "format": "cell-based", "details": "read-out: MIC", "protocol": "(§1) A series of tubes were prepared with the same quantity of sterile nutrive media and increasing quantities of the test product was distributed to each tube. Then, each tube was seeded with a bacterial strain and after incubation at 37° C for 24 or 48 hours, the inhibition of the growth was determined by transillumination which permitted determination of the minimum inhibitory concentrations (M.I.C.) in μg/ml."}, "[2]": {"system": "Streptococcus hemolyticus", "experiment": "MIC, dilution method in liquid media, Streptococcus hemolyticus", "format": "cell-based", "details": "Streptococcus pyogenes", "protocol": "as §1"}, "[3]": {"system": "Staphylococcus aureus 54 146", "experiment": "MIC, dilution method in liquid media, Staphylococcus aureus 54 146", "format": "cell-based", "details": "read-out: MIC", "protocol": "as §1"}, "[4]": {"system": "Proteus mirabilis No. A 235", "experiment": "In vivo activity, experimental infection of Proteus mirabilis in mice", "details": "for Mice living on 8th day: subcutaneous, 1, 5 and 24 hours after infection, controls 0/10; for Mortality after 21 h 15: subcutaneous, number of dead of 10 mice, controls 10", "protocol": "The product of Example 2 was studied for its effect on an experimental infection of Proteus mirabilis in mice. Groups of 10 male mice weighing about 22.5 g were infected by an intraperitoneal injection of 0.5 ml of a 24 hour culture in Pasteur nutritive media of Proteus mirabilis No. A 235 diluted by 1/4 with distilled water.\nThe mice received a subcutaneous injection 1 hour, 5 hours and 24 hours after the infection of a quantity of the product of Example 2 and the mortality was noted during 8 days."}, "[5]": {"system": "Proteus mirabilis (indol)", "experiment": "MIC, dilution method in liquid media, Proteus mirabilis (indol)", "format": "cell-based", "details": "read-out: MIC", "protocol": "as §1"}, "[6]": {"system": "Staphylococcus aureus UC 1 061 (penicillin sensible)", "experiment": "MIC, dilution method in liquid media, Staphylococcus aureus UC 1061, penicillin sensible", "format": "cell-based", "details": "Staphylococcus Oxford UC 1061, penicillin sensible", "protocol": "as §1"}, "[7]": {"system": "Escherichia Coli (T) 026B6", "experiment": "Experimental infection with Escherichia Coli (T) 026B6 in mice", "format": "in vivo", "details": "for Mice living on 8th day: subcutaneous, 1, 5 and 24 hours after infection, control 0/10", "protocol": "Again, the activity of the product of Example 2 was tested against experimental infection of Escherichia Coli in mice. Groups of 10 male mice weighing about 23 g were infected with an intraperitoneal injection of 0.5 ml of a 24 hour culture in Pasteur nutritive media of Escherichia Coli (T) 026B6 diluted by 1/6 with distilled water. The test product was administered subcutaneously one hour, five hours and 24 hours after the infection and the mortality was determined during 8 days."}, "Bacillus subtilis": {"system": "Bacillus subtilis", "experiment": "MIC, dilution method in liquid media, Bacillus subtilis", "format": "cell-based", "details": "read-out: MIC", "protocol": "as §1"}, "[8]": {"system": "staphylococcus aureus 54,146", "experiment": "In vivo activity, experimental staphylococcia in mice", "details": "for Mice living after 8th day: subcutaneous, 1, 5 and 24 hours after infection", "protocol": "The antibacterial activity of the compound of Example 2 was determined against experimental staphylococcia in mice. Lots of 10 male mice weighing about 21.5 g were infected by intraperitoneal injection of 0.5 ml of a 24 hour culture of staphylococcus aureus 54,146 in Pasteur nutritive broth diluted by 1/5 with distilled water. The test product was administered subcutaneously 1 hour, 5 hours and 24 hours after the infection in different doses."}, "[9]": {"system": "Klebsiella pneumoniae 52 145", "experiment": "MIC, dilution method in liquid media, Klebsiella pneumoniae 52 145", "format": "cell-based", "details": "read-out: MIC", "protocol": "as §1"}, "[10]": {"system": "Escherichia Coli (T) 0 26 B 6", "experiment": "MIC, dilution method in liquid media, Escherichia Coli (T) 026 B6", "format": "cell-based", "protocol": "as §1"}, "[11]": {"system": "Staphylococcus aureus UC 1128 (penicillin resistant)", "experiment": "MIC, dilution method in liquid media, Staphylococcus aureus UC 1128, penicillin resistant", "format": "cell-based", "protocol": "as §1"}, "[12]": {"system": "Escherichia Coli UC 1 020", "experiment": "MIC, dilution method in liquid media, Escherichia Coli UC 1 020", "format": "cell-based", "details": "read-out: MIC", "protocol": "as §1"}, "[13]": {"system": "Escherichia Coli UC 1 261", "experiment": "MIC, dilution method in liquid media, Escherichia Coli UC 1 261", "format": "cell-based", "protocol": "as §1"}, "[14]": {"details": "0.5 mg in each injection, subcutaneous, number of dead of 10 mice"}, "[15]": {"details": "0.1 mg in each injection, subcutaneous, number of dead of 10 mice"}, "[16]": {"details": "0.25 mg in each injection, subcutaneous, number of dead of 10 mice"}}, "note": "Like-named read-outs stand apart in the source and are kept apart here."}
{"smiles": "CC(=O)SCC1=C(C(=O)O)N2C(=O)C(NC(=O)Cc3csc(N)n3)[C@H]2SC1", "note": "(stereo partly drawn) [Example 2, 7-[2-(2-amino-4-thiazolyl)-acetamido]-3-acetylthiomethyl-ceph-3-eme-4-carboxylic acid]", "values": [{"measurement": "MIC", "setting": "[1]; Enterococcus faecalis, 5432, 24 h", "result": 5, "unit": "µg/mL"}, {"measurement": "MIC", "setting": "[1]; Enterococcus faecalis, 5432, 48 h", "result": "> 40", "unit": "µg/mL"}, {"measurement": "MIC", "setting": "[2]; 24 h", "result": 0.05, "unit": "µg/mL"}, {"measurement": "MIC", "setting": "[2]; 48 H, in bacto Todd Hewitt Broth pH = 7.8, read-out: MIC", "result": 0.1, "unit": "µg/mL"}, {"measurement": "MIC", "setting": "[3]; Staphylococcus aureus, 54146, 24 h", "result": 0.6, "unit": "µg/mL"}, {"measurement": "MIC", "setting": "[3]; Staphylococcus aureus, 54146, 48 h", "result": 0.6, "unit": "µg/mL"}, {"measurement": "Mice living on 8th day", "setting": "[4]; 0.1 mg in each injection", "result": "8/10"}, {"measurement": "Mortality after 21 h 15", "setting": "[4]; 0.1 mg in each injection", "result": 2}, {"measurement": "Mice living on 8th day", "setting": "[4]; 0.25 mg in each injection", "result": "10/10"}, {"measurement": "Mortality after 21 h 15", "setting": "[4]; 0.25 mg in each injection", "result": 0}, {"measurement": "Mice living on 8th day", "setting": "[4]; 0.5 mg in each injection", "result": "10/10"}, {"measurement": "Mortality after 21 h 15", "setting": "[4]; 0.5 mg in each injection", "result": 0}, {"measurement": "Mice living on 8th day", "setting": "[4]; 0.75 mg in each injection", "result": "10/10"}, {"measurement": "Mortality after 21 h 15", "setting": "[4]; 0.75 mg in each injection", "result": 0}, {"measurement": "MIC", "setting": "[5]; 24 h", "result": 1, "unit": "µg/mL"}, {"measurement": "MIC", "setting": "[5]; 48 h", "result": 1, "unit": "µg/mL"}, {"measurement": "MIC", "setting": "[6]; 24 H", "result": 0.5, "unit": "µg/mL"}, {"measurement": "MIC", "setting": "[6]; 48 H", "result": 0.5, "unit": "µg/mL"}, {"measurement": "Mice living on 8th day", "setting": "[7]; 0.5 mg in each injection", "result": "0/10"}, {"measurement": "Mortality at 21 h 15", "setting": "[7]; [14]", "result": 6}, {"measurement": "Mortality at 24 h 15", "setting": "[7]; [14]", "result": 1}, {"measurement": "Mortality at 27 h 45", "setting": "[7]; [14]", "result": 1}, {"measurement": "Mortality at 45 h 30", "setting": "[7]; [14]", "result": 1}, {"measurement": "Mortality at 70 h", "setting": "[7]; [14]", "result": 1}, {"measurement": "Mice living on 8th day", "setting": "[7]; 1 mg in each injection", "result": "9/10"}, {"measurement": "Mortality at 30 h 45", "setting": "[7]; 1 mg in each injection, subcutaneous, number of dead of 10 mice", "result": 1}, {"measurement": "MIC", "setting": "Bacillus subtilis; 24 h", "result": 0.1, "unit": "µg/mL"}, {"measurement": "MIC", "setting": "Bacillus subtilis; 48 h", "result": 0.5, "unit": "µg/mL"}, {"measurement": "Mice living after 8th day", "setting": "[8]; 0.1 mg in each injection", "result": "0/10"}, {"measurement": "Mortality after 9 h 45", "setting": "[8]; [15]", "result": 1}, {"measurement": "Mortality after 22 h 30", "setting": "[8]; [15]", "result": 8}, {"measurement": "Mortality after 29 h", "setting": "[8]; [15]", "result": 1}, {"measurement": "Mice living after 8th day", "setting": "[8]; 0.25 mg in each injection", "result": "6/10"}, {"measurement": "Mortality after 22 h 30", "setting": "[8]; [16]", "result": 1}, {"measurement": "Mortality after 25 h 30", "setting": "[8]; [16]", "result": 1}, {"measurement": "Mortality after 4 d", "setting": "[8]; [16]", "result": 1}, {"measurement": "Mortality after 5 d", "setting": "[8]; [16]", "result": 1}, {"measurement": "Mice living after 8th day", "setting": "[8]; 0.5 mg in each injection", "result": "9/10"}, {"measurement": "Mortality after 4 d", "setting": "[8]; [14]", "result": 1}, {"measurement": "Mice living after 8th day", "setting": "[8]; 0.75 mg in each injection", "result": "10/10"}, {"measurement": "Mice living after 8th day", "setting": "[8]; 1 mg in each injection", "result": "10/10"}, {"measurement": "MIC", "setting": "[9]; Klebsiella pneumoniae, 52145, 24 h", "result": 0.5, "unit": "µg/mL"}, {"measurement": "MIC", "setting": "[9]; Klebsiella pneumoniae, 52145, 48 h", "result": 0.5, "unit": "µg/mL"}, {"measurement": "MIC", "setting": "[10]; 24 h", "result": 3, "unit": "µg/mL"}, {"measurement": "MIC", "setting": "[10]; 48 h", "result": 3, "unit": "µg/mL"}, {"measurement": "MIC", "setting": "[11]; UC1128, 24 H", "result": 1, "unit": "µg/mL"}, {"measurement": "MIC", "setting": "[11]; UC1128, 48 H", "result": 1, "unit": "µg/mL"}, {"measurement": "MIC", "setting": "[12]; UC1, 24 h", "result": 2, "unit": "µg/mL"}, {"measurement": "MIC", "setting": "[12]; UC1, 48 h", "result": 5, "unit": "µg/mL"}, {"measurement": "MIC", "setting": "[13]; UC1, 24 h", "result": 1, "unit": "µg/mL"}, {"measurement": "MIC", "setting": "[13]; UC1, 48 h", "result": 1, "unit": "µg/mL"}]}
